Measured values published in patent publication US20240199572A1, “COMPOUNDS, COMPOSITIONS, AND METHODS FOR TREATING TYPE 2 DIABETES AND DEMENTIA” (THE BOARD OF TRUSTEES OF THE UNIVERSITY OF ILLINOIS, priority 2021, published 2024).

Columns and labels:
[1] = tested on: ABCA1 mRNA; assay: ABCA1 mRNA - HepG2 (qRT-PCR); type: cell-based, human; settings: Homo sapiens; ABCA1 mRNA-HepG2 assay (Table 7)
Text: qRT-PCR. For cell samples, treated cells were lysed with RLT plus lysis buffer (Qiagen). RNA was isolated with Qiagen RNEASY® Plus columns per manufacturer instructions, then reverse-transcribed to cDNA using […]® III Reverse Transcriptase (200 U/μL, Invitrogen) per supplier protocol. qPCR experiments were either performed with TAQMAN® gene expression master mix (Invitrogen) on a StepOne™ qPCR instrument or with […]® SYBR® Green SuperMix (Quanta Biosciences) on CFX Connect™ Real-Time PCR Detection System (BioRad), with fold-change quantified by ΔΔCt. For animal samples, 100 mg tissue was homogenized in 1 mL acid-guanidinium-phenol based reagent sold under the tradename TRIZOL® (Ambion), mixed vigorously in chloroform, and separated by centrifugation. Aqueous layer containing RNA was added to Qiagen RNEASY® Plus column; remaining stops were as described above for cell lysates.

[2] = tested on: ABCA1; assay: ABCA1 firefly reporter assay in CCF-001 cells; type: cell-based; settings: ABCA1 firefly reporter assay in CCF-001 cells (Table 8)

| EC50 [1] | EC50 [2] | Compound |
| --- | --- | --- |
| > 5000 nM |  | CCOc1ccc(N(C)S(=O)(=O)c2ccsc2C(=O)Nc2cccc(C(=O)CC)c2)cc1 [CL1-62, 3-(N-(4-ethoxyphenyl)-N-methylsulfamoyl)-N-(3-propionylphenyl)thiophene-2-carboxamide] |
| > 5000 nM | 3970 nM | CCOc1ccc(N(C)S(=O)(=O)c2ccsc2C(=O)Nc2cccc(C(=O)OC)c2)cc1 [CL1-87, Methyl 3-(3-(N-(4-ethoxyphenyl)-N-methylsulfamoyl)thiophene-2-carboxamido) benzoate] |
| 4500 nM |  | CCOc1ccc(N(C)S(=O)(=O)c2ccsc2C(=O)Nc2cccc(C(=O)OC(C)C)c2)cc1 [CL1-88, Isopropyl 3-(3-(N-(4-ethoxyphenyl)-N-methylsulfamoyl)thiophene-2-carboxamido) benzoate] |
| > 5000 nM | 4640 nM | CCOC(=O)c1cccc(NC(=O)c2sccc2S(=O)(=O)N(C)c2cccc(OCC)c2)c1 [CL2-1, Ethyl 3-(3-(N-(3-ethoxyphenyl)-N-methylsulfamoyl)thiophene-2-carboxamido)benzoate] |
| 3500 nM | 2360 nM | CCCOc1ccc(N(C)S(=O)(=O)c2ccsc2C(=O)Nc2cccc(C(=O)OCC)c2)cc1 [CL2-16, Ethyl 3-(3-(N-methyl-N-(4-propoxyphenyl)sulfamoyl)thiophene-2-carboxamido) benzoate] |
| 2800 nM |  | CCOC(=O)c1cccc(NC(=O)c2sccc2S(=O)(=O)N(C)c2ccc(OCC)c(OCC)c2)c1 [CL2-43, Ethyl 3-(3-(N-(3,4-diethoxyphenyl)-N-methylsulfamoyl)thiophene-2-carboxamido)benzoate] |
| 4800 nM | 12600 nM | CCOc1ccc(N(C)S(=O)(=O)c2cc(Cl)sc2C(=O)Nc2cccc(S(C)(=O)=O)c2)cc1OCC [CL2-63, 5-Chloro-3-(N-(3,4-diethoxyphenyl)-N-methylsulfamoyl)-N-(3-(methylsulfonyl)phenyl)thiophene-2-carboxamide] |
| > 5000 nM |  | CCOc1ccc(N(C)S(=O)(=O)c2cc(Cl)sc2C(=O)Nc2cccc(C(=O)CC)c2)cc1OCC [CL2-64, 5-Chloro-3-(N-(3,4-diethoxyphenyl)-N-methylsulfamoyl)-N-(3-propionylphenyl)thiophene-2-carboxamide] |
| 1100 nM | 190 nM | CCOC(=O)c1cccc(NC(=O)c2sc(Cl)cc2S(=O)(=O)N(C)c2ccc(OCC)c(OC)c2)c1 [CL2-85, Ethyl 3-(5-chloro-3-(N-(4-ethoxy-3-methoxyphenyl)-N-methylsulfamoyl)thiophene-2-carboxamido)benzoate] |
| 3500 nM | 1620 nM | CCOC(=O)c1cccc(NC(=O)c2sc(Cl)cc2S(=O)(=O)N(C)c2ccc(OCC)cc2F)c1 [CL2-143, Ethyl 3-(5-chloro-3-(N-(4-ethoxy-2-fluorophenyl)-N-methylsulfamoyl)thiophene-2-carboxamido)benzoate] |
| > 5000 nM | 5390 nM | CCOC(=O)c1cccc(NC(=O)c2sc(Cl)cc2S(=O)(=O)N(C)c2ccc(OCC)nc2)c1 [CL2-159, Ethyl 3-(5-chloro-3-(N-(6-ethoxypyxidin-3-yl)-N-methylsulfamoyl)thiophene-2-carboxamido)benzoate] |
| 3700 nM |  | CCOC(=O)c1cccc(NC(=O)c2sc(Cl)cc2S(=O)(=O)N(C)c2ccc(N3CCNCC3)cc2)c1 [CL2-200, Ethyl 3-(5-chloro-3-(N-methyl-N-(4-(piperazin-1-yl)phenyl)sulfamoyl)thiophene-2-carboxamido)benzoate] |
| > 5000 nM |  | CCOC(=O)c1cccc(NC(=O)c2sc(Cl)cc2S(=O)(=O)N(C)c2ccc(OCC)c(OCC)c2)n1 [CL3-2, Ethyl 6-(5-chloro-3-(N-(3,4-diethoxyphenyl)-N-methylsulfamoyl)thiophene-2-carboxamido)picolinate] |
|  | 820 nM | CCOc1ccc(N(C)S(=O)(=O)c2cc(Cl)sc2C(=O)Nc2cc(Cl)ccc2F)cc1OC [GR1-001, 5-Chloro-N-(5-chloro-2-fluorophenyl)-3-(N-(4-ethoxy-3-methoxyphenyl)-N-methylsulfamoyl)thiophene-2-carboxamide] |
|  | 2020 nM | CCOc1ccc(N(C)S(=O)(=O)c2cc(Cl)sc2C(=O)Nc2cc(C(F)(F)F)cc(C(F)(F)F)c2)cc1OC [GR1-002, N-(3,5-bis (trifluoromethyl)phenyl)-5-chloro-3-(N-(4-ethoxy-3-methoxyphenyl)-N-methylsulfamoyl)thiophene-2-carboxamide] |
|  | 3080 nM | CCOC(=O)c1cccc(-c2nnc(-c3sc(Cl)cc3S(=O)(=O)N(C)c3ccc(OCC)c(OC)c3)o2)c1 [GR1-015, Ethyl 3-(5-(5-chloro-3-(N-(4-ethoxy-3-methoxyphenyl)-N-methylsulfamoyl)thiophen-2-yl)-1,3,4-oxadiazol-2-yl)benzoate] |

| EC50 [1] | EC50 [2] | Compound |
| --- | --- | --- |
|  | 66 nM | C#CCOc1ccc(C(=O)c2ccc(OC(=O)c3cc(Cl)cc(NC(=O)c4sc(Cl)cc4S(=O)(=O)N(C)c4ccc(OCC)c(OC)c4)c3)cc2)cc1 [GR1-019, 4-(4-(Prop-2-yn-1-yloxy)benzoyl)phenyl 3-chloro-5-(5-chloro-3-(N-(4-ethoxy-3-methoxyphenyl)-N-methylsulfamoyl)thiophene-2-carboxamido)benzoate] |
|  | 2700 nM | CCOc1ccc(N(C)S(=O)(=O)c2cc(Cl)sc2C(=O)Nc2cccc(Cl)c2)cc1OC [GR1-046, 5-Chloro-N-(3-chlorophenyl)-3-(N-(4-ethoxy-3-methoxyphenyl)-N-methylsulfamoyl)thiophene-2-carboxamide] |
|  | 2530 nM | CCOc1ccc(N(C)S(=O)(=O)c2cc(Cl)sc2C(=O)Nc2cccc(F)c2)cc1OC [GR1-047, 5-Chloro-3-(N-(4-ethoxy-3-methoxyphenyl)-N-methylsulfamoyl)-N-(3-fluorophenyl)thiophene-2-carboxamide] |
|  | 1240 nM | CCOc1ccc(N(C)S(=O)(=O)c2cc(Cl)sc2C(=O)Nc2cccc(Br)c2)cc1OC [GR1-048, N-(3-bromophenyl)-5-chloro-3-(N-(4-ethoxy-3-methoxyphenyl)-N-methylsulfamoyl)thiophene-2-carboxamide] |
|  | 790 nM | CCOc1ccc(N(C)S(=O)(=O)c2cc(Cl)sc2C(=O)Nc2cc(Cl)cc(Cl)c2)cc1OC [GR1-049, 5-Chloro-N-(3,5-dichlorophenyl)-3-(N-(4-ethoxy-3-methoxyphenyl)-N-methylsulfamoyl)thiophene-2-carboxamide] |
|  | 1090 nM | CCOc1ccc(N(C)S(=O)(=O)c2cc(Cl)sc2C(=O)Nc2cc(F)cc(Cl)c2)cc1OC [GR1-050, 5-Chloro-N-(3-chloro-5-fluorophenyl)-3-(N-(4-ethoxy-3-methoxyphenyl)-N-methylsulfamoyl)thiophene-2-carboxamide] |
|  | 3600 nM | CCOc1ccc(N(C)S(=O)(=O)c2cc(Cl)sc2C(=O)Nc2cc(Cl)cc(Br)c2)cc1OC [GR1-051, N-(3-bromo-5-chlorophenyl)-5-chloro-3-(N-(4-ethoxy-3-methoxyphenyl)-N-methylsulfamoyl)thiophene-2-carboxamide] |
|  | 1550 nM | CCOc1ccc(N(C)S(=O)(=O)c2cc(Cl)sc2C(=O)Nc2cc(Cl)cc(C(F)(F)F)c2)cc1OC [GR1-052, 5-Chloro-N-(3-chloro-5-(trifluoromethyl)phenyl)-3-(N-(4-ethoxy-3-methoxyphenyl)-N-methylsulfamoyl)thiophene-2-carboxamide] |
|  | 564 nM | CCOC(=O)c1cc(Br)cc(NC(=O)c2sc(Cl)cc2S(=O)(=O)N(C)c2ccc(OCC)c(OC)c2)c1 [GR1-054, Ethyl 3-bromo-5-(5-chloro-3-(N-(4-ethoxy-3-methoxyphenyl)-N-methylsulfamoyl)thiophene-2-carboxamido)benzoate] |
|  | 135 nM | CCOc1ccc(N(C)S(=O)(=O)c2cc(Cl)sc2C(=O)Nc2cc(Cl)cc(C(=O)Oc3ccccc3)c2)cc1OC [GR1-059, Phenyl 3-chloro-5-(5-chloro-3-(N-(4-ethoxy-3-methoxyphenyl)-N-methylsulfamoyl)thiophene-2-carboxamido)benzoate] |
|  | 578 nM | CCOc1ccc(N(C)S(=O)(=O)c2cc(Cl)sc2C(=O)Nc2cc(Cl)cc([N+](=O)[O-])c2)cc1OC [GR1-064, 5-Chloro-N-(3-chloro-5-nitrophenyl)-3-(N-(4-ethoxy-3-methoxyphenyl)-N-methylsulfamoyl)thiophene-2-carboxamide] |
|  | 11 nM | CCOc1ccc(N(C)S(=O)(=O)c2cc(Cl)sc2C(=O)Nc2cc(Cl)cc(C(=O)Oc3ccc(C(C)=O)cc3)c2)cc1OC [GR1-067, 4-Acetylphenyl 3-chloro-5-(5-chloro-3-(N-(4-ethoxy-3-methoxyphenyl)-N-methylsulfamoyl)thiophene-2-carboxamido)benzoate] |
|  | 148 nM | CCOc1ccc(N(C)S(=O)(=O)c2cc(Cl)sc2C(=O)Nc2cc(Cl)cc(C(=O)Oc3ccc(C(=O)c4ccccc4)cc3)c2)cc1OC [GR1-068, 4-Benzoylphenyl 3-chloro-5-(5-chloro-3-(N-(4-ethoxy-3-methoxyphenyl)-N-methylsulfamoyl)thiophene-2-carboxamido)benzoate] |
|  | 211 nM | CCOc1ccc(N(C)S(=O)(=O)c2cc(Cl)sc2C(=O)Nc2cc(Cl)cc(C(=O)Oc3ccc(C(=O)c4ccc(O)cc4)cc3)c2)cc1OC [GR1-069, 4-(4-Hydroxybenzoyl)phenyl 3-chloro-5-(5-chloro-3-(N-(4-ethoxy-3-methoxyphenyl)-N-methylsulfamoyl)thiophene-2-carboxamido)benzoate] |
|  | 269 nM | O=C(O)Cc1cccc(OCCCN(Cc2cccc(C(F)(F)F)c2Cl)CC(c2ccccc2)c2ccccc2)c1 [GW3965, reference compound] |
